# Data: PubChem BioAssay (NCI)
#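 How tested: cells in 96-well plates exposed to compound for 48 hours at five concentrations. The concentration for full growth arrest is given as TGI.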
# Experiments:
# Assay in all cases: NCI tumour cell line growth inhibition, 48 h
# MCF7 breast = tested on: MCF7 breast
# MALME-3M melanoma = tested on: MALME-3M melanoma
# RXF 393 renal = tested on: RXF 393 renal
# MDA-MB-435 = tested on: MDA-MB-435
# OVCAR-4 ovarian = tested on: OVCAR-4 ovarian
# IGROV1 ovarian = tested on: IGROV1 ovarian
# U251 CNS = tested on: U251 CNS
# 786-0 renal = tested on: 786-0 renal
# RPMI-8226 leukemia = tested on: RPMI-8226 leukemia
# MOLT-4 leukemia = tested on: MOLT-4 leukemia
# M14 melanoma = tested on: M14 melanoma
# EKVX NSCLC = tested on: EKVX NSCLC
# HCC-2998 colon = tested on: HCC-2998 colon
# A498 renal = tested on: A498 renal
# SNB-75 CNS = tested on: SNB-75 CNS
# K-562 leukemia = tested on: K-562 leukemia
# OVCAR-8 ovarian = tested on: OVCAR-8 ovarian
# OVCAR-5 ovarian = tested on: OVCAR-5 ovarian
# DU-145 prostate = tested on: DU-145 prostate
# A549 NSCLC = tested on: A549 NSCLC
# UO-31 renal = tested on: UO-31 renal
# SF-539 CNS = tested on: SF-539 CNS
# SK-MEL-5 melanoma = tested on: SK-MEL-5 melanoma
# HCT-116 colon = tested on: HCT-116 colon
# NCI-H460 lung = tested on: NCI-H460 lung
# SK-MEL-2 melanoma = tested on: SK-MEL-2 melanoma
# HCT-15 colon = tested on: HCT-15 colon
# MDA-MB-231 breast = tested on: MDA-MB-231 breast
# SF-295 CNS = tested on: SF-295 CNS
# SW-620 colon = tested on: SW-620 colon
# SNB-19 CNS = tested on: SNB-19 CNS
# NCI-H23 lung = tested on: NCI-H23 lung
# MDA-N = tested on: MDA-N
# KM12 colon = tested on: KM12 colon
# CCRF-CEM leukemia = tested on: CCRF-CEM leukemia
# SK-MEL-28 melanoma = tested on: SK-MEL-28 melanoma
# OVCAR-3 ovarian = tested on: OVCAR-3 ovarian
# UACC-257 melanoma = tested on: UACC-257 melanoma
# BT-549 breast = tested on: BT-549 breast
# HT29 colon = tested on: HT29 colon
# TK-10 renal = tested on: TK-10 renal
# NCI-H226 lung = tested on: NCI-H226 lung
# SN12C renal = tested on: SN12C renal
# CAKI-1 renal = tested on: CAKI-1 renal
# SF-268 CNS = tested on: SF-268 CNS
# SR leukemia = tested on: SR leukemia
# ACHN renal = tested on: ACHN renal
# HOP-62 NSCLC = tested on: HOP-62 NSCLC
# COLO 205 colon = tested on: COLO 205 colon
# UACC-62 melanoma = tested on: UACC-62 melanoma
# LOX IMVI melanoma = tested on: LOX IMVI melanoma
# SK-OV-3 ovarian = tested on: SK-OV-3 ovarian
# PC-3 prostate = tested on: PC-3 prostate
# NCI-H522 lung = tested on: NCI-H522 lung
# NCI/ADR-RES ovarian = tested on: NCI/ADR-RES ovarian
# HS 578T breast = tested on: HS 578T breast
# HOP-92 NSCLC = tested on: HOP-92 NSCLC
# T-47D breast = tested on: T-47D breast
# HL-60(TB) leukemia = tested on: HL-60(TB) leukemia
structure (smiles),measurement,setting,value
COC(=O)C1=C(C(=O)OC)C2CCC1CC2=O (stereo not given),TGI,MCF7 breast,> 100 µM
same,TGI,MALME-3M melanoma,> 100 µM
same,TGI,RXF 393 renal,> 100 µM
same,TGI,MDA-MB-435,> 100 µM
same,TGI,OVCAR-4 ovarian,> 100 µM
same,TGI,IGROV1 ovarian,> 100 µM
same,TGI,U251 CNS,> 100 µM
same,TGI,786-0 renal,> 100 µM
same,TGI,RPMI-8226 leukemia,> 100 µM
same,TGI,MOLT-4 leukemia,> 100 µM
same,TGI,M14 melanoma,> 100 µM
same,TGI,EKVX NSCLC,> 100 µM
same,TGI,HCC-2998 colon,> 100 µM
same,TGI,A498 renal,> 100 µM
same,TGI,SNB-75 CNS,> 100 µM
same,TGI,K-562 leukemia,> 100 µM
same,TGI,OVCAR-8 ovarian,> 100 µM
same,TGI,OVCAR-5 ovarian,> 100 µM
same,TGI,DU-145 prostate,> 100 µM
same,TGI,A549 NSCLC,> 100 µM
same,TGI,UO-31 renal,> 100 µM
same,TGI,SF-539 CNS,> 100 µM
same,TGI,SK-MEL-5 melanoma,> 100 µM
same,TGI,HCT-116 colon,> 100 µM
same,TGI,NCI-H460 lung,> 100 µM
same,TGI,SK-MEL-2 melanoma,> 100 µM
same,TGI,HCT-15 colon,> 100 µM
same,TGI,MDA-MB-231 breast,> 100 µM
same,TGI,SF-295 CNS,> 100 µM
same,TGI,SW-620 colon,> 100 µM
same,TGI,SNB-19 CNS,> 100 µM
same,TGI,NCI-H23 lung,> 100 µM
same,TGI,MDA-N,> 100 µM
same,TGI,KM12 colon,> 100 µM
same,TGI,CCRF-CEM leukemia,> 100 µM
same,TGI,SK-MEL-28 melanoma,> 100 µM
same,TGI,OVCAR-3 ovarian,> 100 µM
same,TGI,UACC-257 melanoma,> 100 µM
same,TGI,BT-549 breast,> 100 µM
same,TGI,HT29 colon,> 100 µM
same,TGI,TK-10 renal,> 100 µM
same,TGI,NCI-H226 lung,> 100 µM
same,TGI,SN12C renal,> 100 µM
same,TGI,CAKI-1 renal,> 100 µM
same,TGI,SF-268 CNS,> 100 µM
same,TGI,SR leukemia,> 100 µM
same,TGI,ACHN renal,> 100 µM
same,TGI,HOP-62 NSCLC,> 100 µM
same,TGI,COLO 205 colon,> 100 µM
same,TGI,UACC-62 melanoma,> 100 µM
same,TGI,LOX IMVI melanoma,> 100 µM
same,TGI,SK-OV-3 ovarian,> 100 µM
same,TGI,PC-3 prostate,> 100 µM
same,TGI,NCI-H522 lung,> 100 µM
same,TGI,NCI/ADR-RES ovarian,> 100 µM
CC1(C)CC(=O)C(/C=N/c2nc(-c3cccc([N+](=O)[O-])c3)cs2)=C(O)C1,TGI,MCF7 breast,34 µM
same,TGI,RXF 393 renal,46.9 µM
same,TGI,MDA-MB-435,60.7 µM
same,TGI,OVCAR-4 ovarian,> 100 µM
same,TGI,IGROV1 ovarian,44.7 µM
same,TGI,U251 CNS,46.4 µM
same,TGI,786-0 renal,29.9 µM
same,TGI,RPMI-8226 leukemia,43.9 µM
same,TGI,MOLT-4 leukemia,> 100 µM
same,TGI,M14 melanoma,38.2 µM
same,TGI,EKVX NSCLC,46.6 µM
same,TGI,HCC-2998 colon,29.1 µM
same,TGI,A498 renal,30.5 µM
same,TGI,SNB-75 CNS,59.9 µM
same,TGI,K-562 leukemia,52.6 µM
same,TGI,OVCAR-8 ovarian,96.2 µM
same,TGI,HS 578T breast,62.4 µM
same,TGI,OVCAR-5 ovarian,> 100 µM
same,TGI,DU-145 prostate,> 100 µM
same,TGI,A549 NSCLC,> 100 µM
same,TGI,UO-31 renal,74.9 µM
same,TGI,SF-539 CNS,45.6 µM
same,TGI,HCT-116 colon,28.1 µM
same,TGI,NCI-H460 lung,27.8 µM
same,TGI,SK-MEL-2 melanoma,> 100 µM
same,TGI,HCT-15 colon,23.8 µM
same,TGI,MDA-MB-231 breast,43 µM
same,TGI,SF-295 CNS,> 100 µM
same,TGI,SW-620 colon,25.6 µM
same,TGI,SNB-19 CNS,46.9 µM
same,TGI,NCI-H23 lung,37.3 µM
same,TGI,MDA-N,36.5 µM
same,TGI,KM12 colon,> 100 µM
same,TGI,CCRF-CEM leukemia,5.69 µM
same,TGI,OVCAR-3 ovarian,> 100 µM
same,TGI,UACC-257 melanoma,49.7 µM
same,TGI,HOP-92 NSCLC,39.6 µM
same,TGI,BT-549 breast,54 µM
same,TGI,HT29 colon,30.7 µM
same,TGI,TK-10 renal,92.5 µM
same,TGI,T-47D breast,37.3 µM
same,TGI,NCI-H226 lung,36.5 µM
same,TGI,SN12C renal,37.6 µM
same,TGI,CAKI-1 renal,23.4 µM
same,TGI,HL-60(TB) leukemia,> 100 µM
same,TGI,SF-268 CNS,44.1 µM
same,TGI,ACHN renal,33.8 µM
same,TGI,HOP-62 NSCLC,57.9 µM
same,TGI,COLO 205 colon,30.9 µM
same,TGI,UACC-62 melanoma,42.2 µM
same,TGI,LOX IMVI melanoma,27.2 µM
same,TGI,SK-OV-3 ovarian,> 100 µM
same,TGI,PC-3 prostate,> 100 µM
same,TGI,NCI-H522 lung,23.7 µM
same,TGI,NCI/ADR-RES ovarian,39.2 µM
